Source: the supplement of paper PMC12463676, “Small-molecule dissolution of stress granules by redox modulation benefits ALS models” (Nature Chemical Biology, 2025)

Tests used:
potassium arsenate = compound: O=[As]([O-])(O)O.[K+] [potassium arsenate]; test: thermal stability z-score vs DMSO; higher = more thermally stabilized by treatment; conditions: HeLa; arsenate concentration 1 mM
Procedure: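 Cellular thermal proteome profiling in HeLa cells treated with 1 mM arsenate for 1 h (DMSO pretreatment), heated to ten temperatures (37-66.3 °C). Soluble protein was quantified by TMT mass spectrometry relative to DMSO controls; the thermal stability score was transformed to a z-score; mean of n = 3 experiments.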

lipoamide = compound: NC(=O)CCCCC1CCSS1 [lipoamide]; test: as above; conditions: HeLa, lipoamide concentration 100 µM
Procedure: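 Cellular thermal proteome profiling in HeLa cells. Cells were treated with 100 µM lipoamide for 1 h, with or without 1 mM arsenate for a further 1 h, then heated to ten temperatures (37-66.3 °C), and soluble protein was quantified by TMT mass spectrometry relative to 0.1% DMSO controls. The thermal stability score (sum of log2 fold changes minus the abundance score) was transformed to a z-score; mean of n = 3 experiments.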

[1] = arsenate co-treatment: 1 mM arsenate 1 h
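Also: each temperature applied for 3 min, abundance score taken as mean log2 fold change at the two lowest temperatures, z-score obtained by mean subtraction and division by SD.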

Chain of UniProt Q7Z6M1 (Q7Z6M1 whole entry): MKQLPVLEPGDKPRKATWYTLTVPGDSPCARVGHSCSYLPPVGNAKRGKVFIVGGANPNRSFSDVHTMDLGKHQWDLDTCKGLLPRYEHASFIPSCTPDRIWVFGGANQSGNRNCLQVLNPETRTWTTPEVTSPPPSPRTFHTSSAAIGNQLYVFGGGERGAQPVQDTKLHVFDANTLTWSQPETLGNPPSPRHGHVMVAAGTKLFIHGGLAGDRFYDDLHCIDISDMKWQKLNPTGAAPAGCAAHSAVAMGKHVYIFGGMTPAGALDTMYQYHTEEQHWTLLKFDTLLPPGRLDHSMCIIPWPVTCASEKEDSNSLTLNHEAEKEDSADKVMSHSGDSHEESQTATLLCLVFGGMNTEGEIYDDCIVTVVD
Chain of UniProt Q9HB19 (Q9HB19 whole entry): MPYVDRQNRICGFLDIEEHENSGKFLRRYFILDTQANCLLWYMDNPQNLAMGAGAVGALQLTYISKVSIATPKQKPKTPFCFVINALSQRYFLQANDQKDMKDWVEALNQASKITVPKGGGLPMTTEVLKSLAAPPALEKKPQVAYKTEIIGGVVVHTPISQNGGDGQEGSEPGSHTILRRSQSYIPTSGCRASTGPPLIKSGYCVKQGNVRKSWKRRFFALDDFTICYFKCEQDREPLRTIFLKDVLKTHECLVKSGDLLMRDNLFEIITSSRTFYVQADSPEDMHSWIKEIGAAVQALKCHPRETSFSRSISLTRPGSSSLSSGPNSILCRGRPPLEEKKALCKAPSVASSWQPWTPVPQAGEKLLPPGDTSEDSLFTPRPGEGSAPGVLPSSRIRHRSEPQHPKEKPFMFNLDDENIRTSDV
Chain of UniProt Q9NZN5 (Q9NZN5 whole entry): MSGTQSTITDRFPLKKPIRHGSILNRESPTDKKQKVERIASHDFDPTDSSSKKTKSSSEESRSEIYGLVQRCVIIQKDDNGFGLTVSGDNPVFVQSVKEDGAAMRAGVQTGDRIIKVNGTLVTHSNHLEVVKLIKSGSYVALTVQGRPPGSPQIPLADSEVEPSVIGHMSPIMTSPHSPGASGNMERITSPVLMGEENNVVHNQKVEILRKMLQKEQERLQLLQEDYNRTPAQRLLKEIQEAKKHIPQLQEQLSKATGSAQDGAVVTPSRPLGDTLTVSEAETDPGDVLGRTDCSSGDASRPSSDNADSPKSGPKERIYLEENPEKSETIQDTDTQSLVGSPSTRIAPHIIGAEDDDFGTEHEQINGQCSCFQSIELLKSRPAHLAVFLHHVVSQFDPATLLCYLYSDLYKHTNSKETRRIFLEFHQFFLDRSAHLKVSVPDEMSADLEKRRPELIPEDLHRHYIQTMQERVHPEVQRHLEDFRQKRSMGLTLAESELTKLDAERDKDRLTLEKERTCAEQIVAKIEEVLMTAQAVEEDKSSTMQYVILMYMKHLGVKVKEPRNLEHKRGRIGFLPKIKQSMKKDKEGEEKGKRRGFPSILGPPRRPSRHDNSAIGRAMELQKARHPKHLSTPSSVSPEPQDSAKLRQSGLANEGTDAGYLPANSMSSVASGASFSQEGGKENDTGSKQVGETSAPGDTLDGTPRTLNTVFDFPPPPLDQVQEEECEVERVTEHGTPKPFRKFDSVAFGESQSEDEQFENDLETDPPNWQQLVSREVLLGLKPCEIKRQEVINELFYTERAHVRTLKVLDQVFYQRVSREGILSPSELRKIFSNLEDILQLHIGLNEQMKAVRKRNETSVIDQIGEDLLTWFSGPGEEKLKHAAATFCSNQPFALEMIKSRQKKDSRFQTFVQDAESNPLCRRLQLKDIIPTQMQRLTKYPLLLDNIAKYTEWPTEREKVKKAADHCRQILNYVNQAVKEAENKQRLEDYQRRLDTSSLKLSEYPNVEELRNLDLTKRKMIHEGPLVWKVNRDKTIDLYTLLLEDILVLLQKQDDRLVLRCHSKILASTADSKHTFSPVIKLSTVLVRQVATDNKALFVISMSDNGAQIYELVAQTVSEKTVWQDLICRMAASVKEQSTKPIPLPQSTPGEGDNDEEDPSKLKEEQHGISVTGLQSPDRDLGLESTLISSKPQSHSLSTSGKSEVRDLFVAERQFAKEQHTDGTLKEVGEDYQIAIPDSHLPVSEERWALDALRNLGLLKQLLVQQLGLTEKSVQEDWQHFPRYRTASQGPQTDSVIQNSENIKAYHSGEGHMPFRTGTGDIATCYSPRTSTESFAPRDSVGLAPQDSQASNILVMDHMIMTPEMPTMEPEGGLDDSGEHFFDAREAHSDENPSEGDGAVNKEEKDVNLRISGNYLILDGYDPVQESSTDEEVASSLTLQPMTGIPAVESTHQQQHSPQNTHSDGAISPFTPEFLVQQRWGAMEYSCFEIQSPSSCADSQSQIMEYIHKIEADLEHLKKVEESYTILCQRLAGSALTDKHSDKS
Chain of UniProt O60346 (O60346 whole entry): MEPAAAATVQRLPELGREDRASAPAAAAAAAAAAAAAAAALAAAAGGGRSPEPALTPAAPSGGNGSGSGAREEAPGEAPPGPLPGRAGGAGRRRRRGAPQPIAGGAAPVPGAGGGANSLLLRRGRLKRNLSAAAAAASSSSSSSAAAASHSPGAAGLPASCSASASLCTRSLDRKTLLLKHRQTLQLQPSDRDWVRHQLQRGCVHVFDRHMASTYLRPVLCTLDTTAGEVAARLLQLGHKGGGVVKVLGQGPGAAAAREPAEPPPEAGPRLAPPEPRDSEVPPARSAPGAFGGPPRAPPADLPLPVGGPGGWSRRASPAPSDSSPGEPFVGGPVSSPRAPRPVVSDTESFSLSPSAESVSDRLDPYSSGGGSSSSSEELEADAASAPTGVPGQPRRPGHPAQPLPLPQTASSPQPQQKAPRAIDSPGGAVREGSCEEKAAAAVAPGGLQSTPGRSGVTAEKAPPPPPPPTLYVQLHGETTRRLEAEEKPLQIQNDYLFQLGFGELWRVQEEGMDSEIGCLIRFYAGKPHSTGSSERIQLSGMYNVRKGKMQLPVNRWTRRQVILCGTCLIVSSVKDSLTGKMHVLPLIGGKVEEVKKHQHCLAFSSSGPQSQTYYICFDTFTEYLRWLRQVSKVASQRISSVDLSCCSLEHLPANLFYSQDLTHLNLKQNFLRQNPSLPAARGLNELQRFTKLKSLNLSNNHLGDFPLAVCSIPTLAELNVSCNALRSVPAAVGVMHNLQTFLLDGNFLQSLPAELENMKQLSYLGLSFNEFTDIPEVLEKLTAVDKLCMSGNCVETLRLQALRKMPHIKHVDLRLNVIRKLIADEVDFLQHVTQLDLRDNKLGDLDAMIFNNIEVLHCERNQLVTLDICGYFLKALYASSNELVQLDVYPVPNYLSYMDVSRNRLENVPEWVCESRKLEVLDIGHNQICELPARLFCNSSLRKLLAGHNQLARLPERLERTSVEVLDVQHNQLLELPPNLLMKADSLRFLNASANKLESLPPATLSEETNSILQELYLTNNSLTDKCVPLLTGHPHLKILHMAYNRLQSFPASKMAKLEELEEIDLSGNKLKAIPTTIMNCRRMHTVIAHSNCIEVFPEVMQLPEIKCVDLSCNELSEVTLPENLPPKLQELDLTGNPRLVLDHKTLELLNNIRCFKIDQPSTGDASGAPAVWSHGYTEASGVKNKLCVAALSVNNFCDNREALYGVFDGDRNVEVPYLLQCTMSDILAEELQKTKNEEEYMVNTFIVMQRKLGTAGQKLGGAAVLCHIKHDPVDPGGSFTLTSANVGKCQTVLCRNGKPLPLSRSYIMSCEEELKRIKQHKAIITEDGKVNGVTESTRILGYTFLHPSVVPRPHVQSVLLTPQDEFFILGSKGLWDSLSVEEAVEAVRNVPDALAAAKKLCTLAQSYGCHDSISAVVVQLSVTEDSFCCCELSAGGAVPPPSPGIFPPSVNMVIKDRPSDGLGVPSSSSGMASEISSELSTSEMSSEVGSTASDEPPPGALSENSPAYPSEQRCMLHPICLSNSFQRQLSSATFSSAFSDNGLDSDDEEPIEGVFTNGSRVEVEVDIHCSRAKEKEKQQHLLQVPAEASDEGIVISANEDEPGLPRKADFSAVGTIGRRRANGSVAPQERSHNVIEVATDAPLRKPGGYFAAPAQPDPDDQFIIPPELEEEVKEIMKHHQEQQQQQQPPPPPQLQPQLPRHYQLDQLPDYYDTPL
Chain of UniProt Q9NYB9 (Q9NYB9 whole entry): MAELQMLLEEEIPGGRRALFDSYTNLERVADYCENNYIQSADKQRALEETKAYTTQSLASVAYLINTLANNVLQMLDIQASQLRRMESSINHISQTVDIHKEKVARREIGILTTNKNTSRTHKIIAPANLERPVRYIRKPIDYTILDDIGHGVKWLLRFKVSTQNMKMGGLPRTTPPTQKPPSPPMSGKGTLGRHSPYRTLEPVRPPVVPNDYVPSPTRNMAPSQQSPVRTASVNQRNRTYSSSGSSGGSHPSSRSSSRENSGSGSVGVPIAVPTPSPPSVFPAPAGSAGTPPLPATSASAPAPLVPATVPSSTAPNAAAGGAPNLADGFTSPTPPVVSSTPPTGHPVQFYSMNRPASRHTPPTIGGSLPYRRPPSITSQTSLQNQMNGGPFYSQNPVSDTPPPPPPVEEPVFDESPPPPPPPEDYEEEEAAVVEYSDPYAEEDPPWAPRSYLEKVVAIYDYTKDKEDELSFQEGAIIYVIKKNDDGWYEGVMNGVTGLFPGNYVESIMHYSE
Chain of UniProt O15498 (O15498 whole entry): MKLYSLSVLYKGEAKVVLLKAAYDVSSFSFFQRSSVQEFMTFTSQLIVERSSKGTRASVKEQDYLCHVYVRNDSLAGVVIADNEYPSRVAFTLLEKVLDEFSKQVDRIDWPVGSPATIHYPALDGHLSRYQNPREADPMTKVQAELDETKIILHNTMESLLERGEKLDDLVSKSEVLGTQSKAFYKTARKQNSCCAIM
Chain of UniProt Q9Y2Q5 (Q9Y2Q5 whole entry): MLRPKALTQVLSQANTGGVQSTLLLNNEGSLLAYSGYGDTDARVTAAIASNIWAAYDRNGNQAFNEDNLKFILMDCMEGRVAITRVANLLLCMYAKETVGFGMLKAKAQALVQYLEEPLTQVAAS
Chain of UniProt Q9UII2 (Q9UII2 whole entry): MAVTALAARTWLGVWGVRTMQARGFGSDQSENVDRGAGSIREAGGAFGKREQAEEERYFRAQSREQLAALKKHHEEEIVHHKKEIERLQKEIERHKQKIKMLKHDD

In the case of DHX36 (UniProt Q9H2U1), the thermal stability z-score (potassium arsenate) is reported as -0.0639, the thermal stability z-score (lipoamide; [1]) is reported as -0.0301 and the thermal stability z-score (lipoamide; arsenate co-treatment: none) is reported as -0.0965.

USP32 (UniProt Q8NFA0) gave a thermal stability z-score (potassium arsenate) of -0.0527, a thermal stability z-score (lipoamide; [1]) of -0.102 and a thermal stability z-score (lipoamide; arsenate co-treatment: none) of -0.19.

NUMB (UniProt P49757) showed a thermal stability z-score (potassium arsenate) of -2.09, a thermal stability z-score (lipoamide; [1]) of -0.402 and a thermal stability z-score (lipoamide; arsenate co-treatment: none) of 0.201.

In the case of MPDZ (UniProt O75970), the thermal stability z-score (potassium arsenate) is reported as 0.0169, the thermal stability z-score (lipoamide; [1]) is reported as -0.25 and the thermal stability z-score (lipoamide; arsenate co-treatment: none) is reported as -0.0819.

BAZ1A (UniProt Q9NRL2) was tested, and the thermal stability z-score (potassium arsenate) was -0.236, the thermal stability z-score (lipoamide; [1]) was -0.258 and the thermal stability z-score (lipoamide; arsenate co-treatment: none) was 0.0591.

Target NUF2 (UniProt Q9BZD4) has a thermal stability z-score (potassium arsenate) of 2.02, a thermal stability z-score (lipoamide; [1]) of -0.884 and a thermal stability z-score (lipoamide; arsenate co-treatment: none) of -0.901.

With GCFC2 (UniProt P16383) the thermal stability z-score (potassium arsenate) was -0.00138, the thermal stability z-score (lipoamide; [1]) was 0.317 and the thermal stability z-score (lipoamide; arsenate co-treatment: none) was 0.441.

For TXNDC11 (UniProt Q6PKC3), the thermal stability z-score (potassium arsenate) was 0.425, the thermal stability z-score (lipoamide; [1]) was -0.797 and the thermal stability z-score (lipoamide; arsenate co-treatment: none) was -0.984.

For DAPK3 (UniProt O43293), the thermal stability z-score (potassium arsenate) was 0.228, the thermal stability z-score (lipoamide; [1]) was -0.0576 and the thermal stability z-score (lipoamide; arsenate co-treatment: none) was -0.0876.

With C1ORF52 (UniProt Q8N6N3) the thermal stability z-score (potassium arsenate) was -0.417, the thermal stability z-score (lipoamide; [1]) was 0.477 and the thermal stability z-score (lipoamide; arsenate co-treatment: none) was 0.0555.

Target SLC39A10 (UniProt Q9ULF5) has a thermal stability z-score (potassium arsenate) of 0.177, a thermal stability z-score (lipoamide; [1]) of 0.0305 and a thermal stability z-score (lipoamide; arsenate co-treatment: none) of -0.329.

LAMTOR2 (UniProt Q9Y2Q5) gave a thermal stability z-score (potassium arsenate) of 0.135, a thermal stability z-score (lipoamide; [1]) of 0.266 and a thermal stability z-score (lipoamide; arsenate co-treatment: none) of 0.19.

For QARS, the thermal stability z-score (potassium arsenate) was -0.289, the thermal stability z-score (lipoamide; [1]) was -0.515 and the thermal stability z-score (lipoamide; arsenate co-treatment: none) was -0.706.

With DPYSL2 (UniProt Q16555) the thermal stability z-score (potassium arsenate) was -0.691, the thermal stability z-score (lipoamide; [1]) was 0.645 and the thermal stability z-score (lipoamide; arsenate co-treatment: none) was 0.115.

For INF2 (UniProt Q27J81), the thermal stability z-score (potassium arsenate) was 0.0741, the thermal stability z-score (lipoamide; [1]) was -0.674 and the thermal stability z-score (lipoamide; arsenate co-treatment: none) was -0.257.

RBM7 (UniProt Q9Y580) showed a thermal stability z-score (potassium arsenate) of 0.0182, a thermal stability z-score (lipoamide; [1]) of 0.00736 and a thermal stability z-score (lipoamide; arsenate co-treatment: none) of 0.0818.

In the case of RPS6 (UniProt P62753), the thermal stability z-score (potassium arsenate) is reported as -0.404, the thermal stability z-score (lipoamide; [1]) is reported as 1.06 and the thermal stability z-score (lipoamide; arsenate co-treatment: none) is reported as 0.834.

For EMC4 (UniProt Q5J8M3), the thermal stability z-score (potassium arsenate) was 0.26, the thermal stability z-score (lipoamide; [1]) was -0.342 and the thermal stability z-score (lipoamide; arsenate co-treatment: none) was 0.294.

For EP300 (UniProt Q09472), the thermal stability z-score (potassium arsenate) was -0.866, the thermal stability z-score (lipoamide; [1]) was -0.212 and the thermal stability z-score (lipoamide; arsenate co-treatment: none) was 0.127.

With CPSF3 (UniProt Q9UKF6) the thermal stability z-score (potassium arsenate) was -0.0903, the thermal stability z-score (lipoamide; [1]) was 0.15 and the thermal stability z-score (lipoamide; arsenate co-treatment: none) was -0.0907.

Target MLH1 (UniProt P40692) has a thermal stability z-score (potassium arsenate) of 1.04, a thermal stability z-score (lipoamide; [1]) of -0.0694 and a thermal stability z-score (lipoamide; arsenate co-treatment: none) of 0.372.

In the case of ABI2 (UniProt Q9NYB9), the thermal stability z-score (potassium arsenate) is reported as 0.72, the thermal stability z-score (lipoamide; [1]) is reported as 0.0724 and the thermal stability z-score (lipoamide; arsenate co-treatment: none) is reported as 0.978.

In the case of PRNP, the thermal stability z-score (potassium arsenate) is reported as 0.0499, the thermal stability z-score (lipoamide; [1]) is reported as 0.0235 and the thermal stability z-score (lipoamide; arsenate co-treatment: none) is reported as 0.239.

Work on YKT6 (UniProt O15498) yielded a thermal stability z-score (potassium arsenate) of -0.597, a thermal stability z-score (lipoamide; [1]) of -0.198 and a thermal stability z-score (lipoamide; arsenate co-treatment: none) of 0.453.

For ARHGAP12 (UniProt Q8IWW6), the thermal stability z-score (potassium arsenate) was 0.668, the thermal stability z-score (lipoamide; [1]) was -0.578 and the thermal stability z-score (lipoamide; arsenate co-treatment: none) was -0.344.

SLC25A36 (UniProt Q96CQ1) gave a thermal stability z-score (potassium arsenate) of -0.241, a thermal stability z-score (lipoamide; [1]) of 0.659 and a thermal stability z-score (lipoamide; arsenate co-treatment: none) of 0.329.

Work on DDX1 (UniProt Q92499) yielded a thermal stability z-score (potassium arsenate) of -0.304, a thermal stability z-score (lipoamide; [1]) of 0.085 and a thermal stability z-score (lipoamide; arsenate co-treatment: none) of 0.274.

For PRKAR2A (UniProt P13861), the thermal stability z-score (potassium arsenate) was 0.904, the thermal stability z-score (lipoamide; [1]) was 0.114 and the thermal stability z-score (lipoamide; arsenate co-treatment: none) was 0.239.

FDFT1 (UniProt P37268) showed a thermal stability z-score (potassium arsenate) of 0.108, a thermal stability z-score (lipoamide; [1]) of -0.0123 and a thermal stability z-score (lipoamide; arsenate co-treatment: none) of 0.444.

CDK17 (UniProt Q00537) gave a thermal stability z-score (potassium arsenate) of -0.0969, a thermal stability z-score (lipoamide; [1]) of 1.07 and a thermal stability z-score (lipoamide; arsenate co-treatment: none) of 0.395.

Target CEP170B (UniProt Q9Y4F5) has a thermal stability z-score (potassium arsenate) of -0.201, a thermal stability z-score (lipoamide; [1]) of -0.0863 and a thermal stability z-score (lipoamide; arsenate co-treatment: none) of -0.0862.

Target RDH10 (UniProt Q8IZV5) has a thermal stability z-score (potassium arsenate) of 0.115, a thermal stability z-score (lipoamide; [1]) of 0.347 and a thermal stability z-score (lipoamide; arsenate co-treatment: none) of 0.244.

Work on RABEPK (UniProt Q7Z6M1) yielded a thermal stability z-score (potassium arsenate) of -0.0506, a thermal stability z-score (lipoamide; [1]) of 0.68 and a thermal stability z-score (lipoamide; arsenate co-treatment: none) of 0.305.

Work on PLEKHA2 (UniProt Q9HB19) yielded a thermal stability z-score (potassium arsenate) of -0.321, a thermal stability z-score (lipoamide; [1]) of -0.216 and a thermal stability z-score (lipoamide; arsenate co-treatment: none) of -0.168.

Target NUP35 (UniProt Q8NFH5) has a thermal stability z-score (potassium arsenate) of 1.25, a thermal stability z-score (lipoamide; [1]) of 0.043 and a thermal stability z-score (lipoamide; arsenate co-treatment: none) of -0.376.

TTC28 (UniProt Q96AY4) gave a thermal stability z-score (potassium arsenate) of -0.0135, a thermal stability z-score (lipoamide; [1]) of -0.0855 and a thermal stability z-score (lipoamide; arsenate co-treatment: none) of -0.0784.

In the case of ARHGEF12 (UniProt Q9NZN5), the thermal stability z-score (potassium arsenate) is reported as 0.192, the thermal stability z-score (lipoamide; [1]) is reported as -0.125 and the thermal stability z-score (lipoamide; arsenate co-treatment: none) is reported as -0.261.

With POLR2D (UniProt O15514) the thermal stability z-score (potassium arsenate) was -0.735, the thermal stability z-score (lipoamide; [1]) was 1.21 and the thermal stability z-score (lipoamide; arsenate co-treatment: none) was 0.628.

In the case of ATPIF1 (UniProt Q9UII2), the thermal stability z-score (potassium arsenate) is reported as -0.206, the thermal stability z-score (lipoamide; [1]) is reported as 0.646 and the thermal stability z-score (lipoamide; arsenate co-treatment: none) is reported as 0.505.

For NECTIN3 (UniProt Q9NQS3), the thermal stability z-score (potassium arsenate) was 0.432, the thermal stability z-score (lipoamide; [1]) was -0.126 and the thermal stability z-score (lipoamide; arsenate co-treatment: none) was -0.303.

Work on HDLBP (UniProt Q00341) yielded a thermal stability z-score (potassium arsenate) of -0.295, a thermal stability z-score (lipoamide; [1]) of -0.35 and a thermal stability z-score (lipoamide; arsenate co-treatment: none) of 0.231.

In the case of PARG (UniProt Q86W56), the thermal stability z-score (potassium arsenate) is reported as 0.0362, the thermal stability z-score (lipoamide; [1]) is reported as -0.123 and the thermal stability z-score (lipoamide; arsenate co-treatment: none) is reported as 0.257.

CDK4 (UniProt P11802) gave a thermal stability z-score (potassium arsenate) of 0.783, a thermal stability z-score (lipoamide; [1]) of 1.15 and a thermal stability z-score (lipoamide; arsenate co-treatment: none) of 1.03.

KANK1 (UniProt Q14678) gave a thermal stability z-score (potassium arsenate) of 0.739, a thermal stability z-score (lipoamide; [1]) of 0.282 and a thermal stability z-score (lipoamide; arsenate co-treatment: none) of 0.616.

Work on AAK1 (UniProt Q2M2I8) yielded a thermal stability z-score (potassium arsenate) of 0.0056, a thermal stability z-score (lipoamide; [1]) of 0.286 and a thermal stability z-score (lipoamide; arsenate co-treatment: none) of 0.0193.

FLVCR1 (UniProt Q9Y5Y0) was tested, and the thermal stability z-score (potassium arsenate) was -0.43, the thermal stability z-score (lipoamide; [1]) was -0.393 and the thermal stability z-score (lipoamide; arsenate co-treatment: none) was -0.367.

With BLOC1S2 (UniProt Q6QNY1) the thermal stability z-score (potassium arsenate) was 1.61, the thermal stability z-score (lipoamide; [1]) was 2.75 and the thermal stability z-score (lipoamide; arsenate co-treatment: none) was 1.1.

For PHLPP1 (UniProt O60346), the thermal stability z-score (potassium arsenate) was -0.061, the thermal stability z-score (lipoamide; [1]) was 0.138 and the thermal stability z-score (lipoamide; arsenate co-treatment: none) was -0.144.

GNA13 (UniProt Q14344) was tested, and the thermal stability z-score (potassium arsenate) was -0.441, the thermal stability z-score (lipoamide; [1]) was 0.187 and the thermal stability z-score (lipoamide; arsenate co-treatment: none) was 0.347.

ARIH1 (UniProt Q9Y4X5) was tested, and the thermal stability z-score (potassium arsenate) was -0.568, the thermal stability z-score (lipoamide; [1]) was -0.0195 and the thermal stability z-score (lipoamide; arsenate co-treatment: none) was -0.0439.

CAMKMT (UniProt Q7Z624) gave a thermal stability z-score (potassium arsenate) of -0.235, a thermal stability z-score (lipoamide; [1]) of 0.0977 and a thermal stability z-score (lipoamide; arsenate co-treatment: none) of -0.0333.

CASC4 (UniProt Q6P4E1) gave a thermal stability z-score (potassium arsenate) of 0.0247, a thermal stability z-score (lipoamide; [1]) of 0.245 and a thermal stability z-score (lipoamide; arsenate co-treatment: none) of 0.111.

ZZEF1 (UniProt O43149) showed a thermal stability z-score (potassium arsenate) of 0.0396, a thermal stability z-score (lipoamide; [1]) of 0.044 and a thermal stability z-score (lipoamide; arsenate co-treatment: none) of 0.201.

With TMSB10 (UniProt P63313) the thermal stability z-score (potassium arsenate) was 0.014, the thermal stability z-score (lipoamide; [1]) was 0.8 and the thermal stability z-score (lipoamide; arsenate co-treatment: none) was 0.288.

NUP43 (UniProt Q8NFH3) gave a thermal stability z-score (potassium arsenate) of 1.58, a thermal stability z-score (lipoamide; [1]) of 2.43 and a thermal stability z-score (lipoamide; arsenate co-treatment: none) of 0.779.
